Measurements published in ChEMBL document CHEMBL5113387, “An insight into the multifunctional role of ghrelin and structure activity relationship studies of ghrelin receptor ligands with clinical trials” (Eur J Med Chem, 2022).
Peptide text beside a SMILES is read from it.

Experiments:
[1] = Stimulation of growth hormone secretion in rat pituitary cells; assay type: functional, cell-based; conditions: Pituitary gland cell
[2] = target: T1, Growth hormone secretagogue receptor type 1 (Homo sapiens, UniProt Q92847); assay: Binding affinity to GHS-R1a (unknown origin) assessed as inhibition constant
T1 sequence (Q92847 whole entry): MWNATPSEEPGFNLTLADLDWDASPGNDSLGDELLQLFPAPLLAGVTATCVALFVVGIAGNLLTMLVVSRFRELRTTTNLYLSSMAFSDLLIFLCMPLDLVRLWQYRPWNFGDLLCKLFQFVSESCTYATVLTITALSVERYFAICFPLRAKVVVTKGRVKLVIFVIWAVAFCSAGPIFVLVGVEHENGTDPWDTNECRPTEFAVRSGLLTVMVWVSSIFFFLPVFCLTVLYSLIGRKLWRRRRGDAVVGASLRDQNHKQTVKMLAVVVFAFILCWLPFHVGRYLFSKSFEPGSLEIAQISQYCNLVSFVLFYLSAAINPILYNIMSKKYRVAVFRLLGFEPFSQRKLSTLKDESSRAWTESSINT

[3] = Stimulation of growth hormone secretion in Wistar rat pituitary cells measured after 15 mins; assay type: functional, cell-based; conditions: Pituitary gland cell, 0.25 h
[4] = Oral bioavailability in human; assay type: ADME, organism-based; conditions: in vivo
[5] = target: T1, Growth hormone secretagogue receptor type 1; assay: Binding affinity to GHS-R1a (unknown origin); conditions: filed as agonist

| Compound | EC50 [1] [nM] | also measured |
| --- | --- | --- |
| C[C@H](O)CNC(C)(C)CC(=O)N[C@@H]1CCc2ccccc2N(Cc2ccc(-c3ccccc3-c3nn[nH]n3)cc2)C1=O | 3 |  |
| CC(C)(N)CC(=O)N[C@@H]1CCc2ccccc2N(Cc2ccc(-c3ccccc3-c3nn[nH]n3)cc2)C1=O | 60 |  |
| CN1CCC(S(=O)(=O)N[C@@H](COCc2ccccc2)C(=O)N2CCC3(CC2)CN(S(C)(=O)=O)c2ccccc23)CC1 |  | Ki [2]: < 100 nM |
| C[C@H](NC(=O)[C@H](Cc1c[nH]c2ccccc12)NC(=O)[C@@H](N)Cc1c[nH]cn1)C(=O)N[C@@H](Cc1c[nH]c2ccccc12)C(=O)N[C@@H](Cc1ccccc1)C(=O)N[C@@H](CCCCN)C(N)=O (H-HWAWFK-NH2) | 10 |  |
| CN1N=C2CCN(C(=O)[C@@H](COCc3ccccc3)NC(=O)C(C)(C)N)C[C@@]2(Cc2ccccc2)C1=O [CAPROMORELIN] |  | EC50 [3]: 3 nM |
| Cc1[nH]c2ccccc2c1C[C@@H](NC(=O)[C@@H](N)Cc1cnc[nH]1)C(=O)N[C@@H](C)C(=O)N[C@@H](Cc1c[nH]c2ccccc12)C(=O)N[C@H](Cc1ccccc1)C(=O)N[C@@H](CCCCN)C(N)=O [EXAMORELIN] (HELM PEPTIDE1{H.[Cc1[nH]c2ccccc2c1C[C@@H](N[*:1])C(=O)[*:2]].A.W.[dF].K.[am]}$$$$V2.0) |  | bioavailability [4]: < 1% |
| CC(C)(N)C(=O)N[C@H](COCc1ccccc1)C(=O)N1CCC2(CC1)CN(S(C)(=O)=O)c1ccccc12 [IBUTAMOREN] | 1.3 | Activity [5]: 0.3 nM |
